Some test systems named below: HT29 colon; SK-MEL-2 melanoma; SK-MEL-5 melanoma; SF-295 CNS; SNB-19 CNS; RXF 393 renal; RPMI-8226 leukemia; UACC-62 melanoma; OVCAR-5 ovarian; HS 578T breast.
What all share (assay): NCI anticancer screen, dose series, 48 h

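Dose response: 5 concentrations. Exposure: 48 h. Format: 96-well plates. Endpoint: linear interpolation; highest concentration if not reached. At the GI50, growth is halved. TGI marks complete inhibition of growth.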 Bounds are passed on as bounds.

Regarding `CC(C)/C=C1\CCC(CN(C)C)C1=O` (stereo not given), the TGI in the assay with HT29 colon amounted to 4.84 µM; in the assay on SK-MEL-2 melanoma it was 14.3 µM; with SK-MEL-5 melanoma, 12.4 µM; with SF-295 CNS, 31.2 µM; in the assay with SNB-19 CNS, 21.6 µM; with RXF 393 renal it was 1.31 µM. Further, the TGI is 2.36 µM with RPMI-8226 leukemia, 32.6 µM with UACC-62 melanoma and 15.3 µM with OVCAR-5 ovarian.
Consider `COc1ccc(-c2cc(=O)c3c(O)c(OC)c(OC)c(OC)c3o2)cc1OC`, for which the TGI in the assay with HT29 colon, in the assay with SK-MEL-2 melanoma, with SK-MEL-5 melanoma, in the assay on SF-295 CNS, in the assay with SNB-19 CNS and in the assay on UACC-62 melanoma was more than 100 µM throughout. Moreover, the TGI with OVCAR-5 ovarian was more than 100 µM; in the assay on HS 578T breast, 81.8 µM.
On to `CN(C)CCNC(=O)c1cccc2c1nc(-c1ccc(F)cc1)c1ccccc12`, for which the TGI in the assay with HT29 colon amounted to 15.1 µM; with SK-MEL-2 melanoma, 22.3 µM; in the assay on SK-MEL-5 melanoma, 11 µM; in the assay with SF-295 CNS, 19.3 µM; in the assay on SNB-19 CNS, 20.2 µM; in the assay on RXF 393 renal, 12 µM. In addition, the TGI was found to be 14.8 µM in the assay on UACC-62 melanoma and 16.7 µM with OVCAR-5 ovarian.
Take `Cn1c(CBr)nc2c1C(=O)c1nc(CBr)[nH]c(=O)c1C2=O`: the TGI in the assay with HT29 colon, with SK-MEL-5 melanoma, in the assay on SF-295 CNS, in the assay with RXF 393 renal, with RPMI-8226 leukemia and in the assay on UACC-62 melanoma was more than 100 µM throughout.
For the molecule `Nc1ccc2n[se]nc2c1`, the TGI in the assay on HT29 colon, in the assay on SK-MEL-2 melanoma, with SK-MEL-5 melanoma, with SF-295 CNS, with SNB-19 CNS and in the assay on RXF 393 renal was more than 100 µM throughout. Also, the TGI in the assay with RPMI-8226 leukemia, in the assay on UACC-62 melanoma and in the assay with OVCAR-5 ovarian was more than 100 µM throughout.
For `CC1(C)CCC(Sc2ccccc2)O1` (stereo not given), the TGI in the assay with SK-MEL-2 melanoma, in the assay with SK-MEL-5 melanoma, in the assay with SF-295 CNS, in the assay with SNB-19 CNS, in the assay on RXF 393 renal and with RPMI-8226 leukemia was more than 100 µM throughout. In the assay with UACC-62 melanoma, the TGI was more than 100 µM.
Turning to `Cc1ccc(C(=O)CC2(O)C(=O)Nc3c(C)cc(Cl)cc32)cc1` (stereo not given), the TGI with HT29 colon, in the assay on SK-MEL-2 melanoma, with SK-MEL-5 melanoma, in the assay with SF-295 CNS, in the assay on SNB-19 CNS and with RXF 393 renal was more than 100 µM each time. Besides, the TGI with RPMI-8226 leukemia and in the assay with OVCAR-5 ovarian was more than 100 µM throughout.
In the case of `CC(=O)C1CCN(c2ccccc2)C1` (stereo not given), the TGI in the assay with HT29 colon, with SK-MEL-2 melanoma, in the assay with SK-MEL-5 melanoma, in the assay on SF-295 CNS, in the assay with SNB-19 CNS and in the assay with RXF 393 renal was more than 100 µM each time. For the same molecule, the TGI in the assay with UACC-62 melanoma and with OVCAR-5 ovarian was more than 100 µM in each case.
As for `COc1cc[c]([Sn]([c]2ccc(OC)cc2)([c]2ccc(OC)cc2)[c]2ccc(OC)cc2)cc1`, the GI50 was 20.3 µM in the assay with HT29 colon; 28.2 µM in the assay with SK-MEL-2 melanoma; 12.7 µM in the assay with SK-MEL-5 melanoma; 39.4 µM in the assay on SF-295 CNS; 28.5 µM in the assay with SNB-19 CNS; 11.2 µM in the assay on RPMI-8226 leukemia. Moreover, the GI50 is 17.9 µM with UACC-62 melanoma and 33.3 µM in the assay on OVCAR-5 ovarian. Moreover, the TGI in the assay with HT29 colon is more than 100 µM; with SK-MEL-2 melanoma it was more than 100 µM; in the assay on SK-MEL-5 melanoma, 28.5 µM; with SF-295 CNS, more than 100 µM; with SNB-19 CNS, more than 100 µM; in the assay with RPMI-8226 leukemia it was 35.1 µM. Besides, the TGI is 69.3 µM with UACC-62 melanoma and more than 100 µM in the assay on OVCAR-5 ovarian.
Regarding `CC(C)(CN1C(=O)C(Cl)=C(Cl)C1=O)CN1C(=O)C(Cl)=C(Cl)C1=O`, the TGI is 42 µM with HT29 colon; 41 µM with SK-MEL-2 melanoma; 51.6 µM in the assay with SK-MEL-5 melanoma; 58.8 µM with SF-295 CNS; 55 µM with SNB-19 CNS; 14.4 µM in the assay with RXF 393 renal. The TGI was 4.96 µM with RPMI-8226 leukemia, 29.5 µM in the assay with UACC-62 melanoma and 42.7 µM in the assay with OVCAR-5 ovarian.
Take `Cc1nc(N)nc(N)c1CCCCc1ccc(N)cc1`: the TGI in the assay with HT29 colon worked out at 15.1 µM; in the assay on SK-MEL-2 melanoma, 21.3 µM; in the assay on SK-MEL-5 melanoma, 16.5 µM; with SF-295 CNS, 14.2 µM; in the assay on SNB-19 CNS, 20.4 µM; with RPMI-8226 leukemia it was 26.5 µM. Further, the TGI with UACC-62 melanoma stood at 14.1 µM; in the assay on OVCAR-5 ovarian, 23 µM.
As to `CC(C)(C)c1cc(CCC(=O)Nc2ccc(Cl)cc2)[nH]c(=S)n1`, the TGI in the assay with HT29 colon, in the assay with SK-MEL-2 melanoma, in the assay on SK-MEL-5 melanoma, in the assay on SF-295 CNS, in the assay on SNB-19 CNS and in the assay with RXF 393 renal was more than 100 µM throughout. In addition, the TGI in the assay on RPMI-8226 leukemia, in the assay on UACC-62 melanoma and in the assay with OVCAR-5 ovarian was more than 100 µM each time.
Take `COC(=O)C(=O)Cc1nc2ccccc2s1`: the TGI in the assay on HT29 colon, with SK-MEL-2 melanoma, in the assay with SK-MEL-5 melanoma, with SF-295 CNS, in the assay on SNB-19 CNS and in the assay with RXF 393 renal was more than 100 µM in each case. Moreover, the TGI with UACC-62 melanoma and in the assay with OVCAR-5 ovarian was more than 100 µM each time.
Regarding `CN=c1ss/c(=N\C(=S)N(C)C)n1C`, the TGI in the assay on HT29 colon, with SK-MEL-2 melanoma, in the assay on SK-MEL-5 melanoma, in the assay with SF-295 CNS, in the assay on SNB-19 CNS and with RXF 393 renal was more than 100 µM in each case. Moreover, the TGI in the assay with RPMI-8226 leukemia, in the assay with UACC-62 melanoma and in the assay on OVCAR-5 ovarian was more than 100 µM in each case.
Turning to `COC(=O)CCSC(=O)Nc1ccc(N=Nc2ccccc2)cc1`, the TGI in the assay on HT29 colon, in the assay on SK-MEL-5 melanoma, with SF-295 CNS, with SNB-19 CNS, in the assay on RXF 393 renal and in the assay on RPMI-8226 leukemia was more than 100 µM in each case. Further, the TGI in the assay with UACC-62 melanoma and in the assay on OVCAR-5 ovarian was more than 100 µM each time.

The record behind these values is PubChem BioAssay (NCI).
